Measured values published in US11253471B2, “Rectal mucosal administration preparation of Pulsatilla chinensis saponin B4 and preparation method therefor” (priority 2018, dated 2022).

Tests used:
[1] = test system: gentamicin-induced acute kidney injury in rats; test: Gentamicin-induced acute kidney injury in rats: serum indexes and urinary protein; type: in vivo, SD rats; conditions: for Urinary Protein, 5th day of administration / Urinary Protein, 6th day of administration / Urinary Protein, 7th day of administration / BUN / CREA / TP: by gavage; for BUN / CREA / TP: serum, 7 days
Text: Acute renal failure induced by gentamicin was mainly manifested in the increase of creatinine and urea nitrogen, but the mechanism of gentamicin induced nephrotoxicity was still unclear. In this experiment, two kinds of rectal mucosa administration preparations of Pulsatilla chinensis saponin B4 according to the present invention were infused by anus to observe the preventive and therapeutic effects of tested drugs on gentamicin-induced ARF in rats, and compared with oral (gavage) administration of Pulsatilla chinensis saponin B4.
(§1) Dexamethasone solution: 4 tablets of dexamethasone were ground and dissolved in 100 ml double distilled water, and then diluted to 0.03 mg/ml.
B4 raw powder solution: 2000 mg of B4 raw powder was weighed, ground, and dissolved in 100 ml double distilled water to obtain 20 mg/ml solution.
Rats in experimental groups were intraperitoneally injected with gentamicin sulfate solution at the dose of 140 mg/kg, while the rats in the blank group were intraperitoneally injected with equal volume of normal saline, and the administration was continued for 7 days to make a model.
The animals were randomly divided into blank group; model group; positive drug group (dexamethasone group); B4 gel high, medium, and low dose groups; B4 suppository high, medium, and low dose groups; B4 powder group; 10 animals for each group. Animals in B4 gel groups received the gel by rectum at 0.3 ml/100 g body weight; animals in B4 suppository groups received the suppository by rectum; B4 raw powder group and positive group were given corresponding drugs by gavage according to 10 ml/kg body weight. The model group and the blank group were given the same volume of double distilled water by gavage. The drug was continuously administered for 7 days from the second day of modeling.
Urine proteins were detected by Coomassie brilliant blue method. After isoflurane anesthesia, blood samples were taken from eyeballs of rats. Serum was separated. Total protein (TP), urea nitrogen (BUN), and creatinine (CRE) were detected by automatic biochemical analysis.

[2] = test system: cisplatin-induced acute kidney injury in mice; test: Cisplatin-induced acute kidney injury in mice: serum indexes and urinary protein; type: in vivo, ICR mice; conditions: for Urinary Protein / BUN / CREA / TP: by gavage, 4 days; for Urinary Protein: one hour after the last administration; for BUN / CREA / TP: serum
Protocol: After intraperitoneal injection of cisplatin, cisplatin was toxic to different parts of the kidney. It could cause changes in the function and morphology of glomerulus and renal tubules. Cisplatin could cause renal vasoconstriction, reduce renal blood flow and glomerular filtration rate, and thus cause proteinuria, renal function damage and other symptoms. In this study, B4 was administered by different routes (rectum and oral) to observe the preventive and therapeutic effects of B4 on cisplatin-induced ARF in mice.
2.1.2 Reagent: cisplatin, the original solution 5 mg/kg.
as §1
B4 raw powder solution: 1000 mg of B4 raw powder was weighed, ground, and dissolved in 100 ml double distilled water to obtain 10 mg/ml solution.
The model was established by cisplatin at a dosage of […]. The normal group was intraperitoneally injected with normal saline, and the other groups were intraperitoneally injected with cisplatin injection.
The animals were randomly divided into blank group; model group; positive drug group (dexamethasone group); B4 gel high, medium, and low dose groups; B4 suppository high, medium, and low dose groups; B4 raw powder group; 10 animals for each group. Animals in B4 gel groups received the gel by rectum at 0.3 ml/100 g body weight; animals in B4 suppository groups received the suppository by rectum; B4 raw powder group and positive group were given corresponding drugs by gavage according to 20 m/kg body weight. The model group and the blank group were given the same volume of double distilled water by gavage. The drug was continuously administered for 4 days from the day of modeling. Animals were fasted for 16-18 hours before administration on day 4.
One hour after the last administration, urine was collected to measure urine proteins. Blood samples were taken from eyeballs to separate serum. Total protein (TP), urea nitrogen (BUN) and creatinine (Cre) were detected by automatic biochemical analysis.

[3] = gel and suppository by rectum, raw powder oral

Q: With `C=C(C)C1CC[C@]2(C(=O)O[C@@H]3O[C@H](CO[C@@H]4O[C@H](CO)[C@@H](O[C@@H]5O[C@@H](C)[C@H](O)[C@@H](O)[C@H]5O)[C@H](O)[C@H]4O)[C@@H](O)[C@H](O)[C@H]3O)CC[C@]3(C)[C@H](CC[C@@H]4[C@@]5(C)CC[C@H](OC6OC[C@H](O)[C@H](O)[C@H]6O[C@@H]6O[C@@H](C)[C@H](O)[C@@H](O)[C@H]6O)[C@@](C)(CO)[C@@H]5CC[C@]43C)[C@@H]12` (stereo partly shown) [B4 raw powder, Pulsatilla chinensis saponin B4] as the compound, how does the “Urinary Protein, 5th day of administration” value ([1]; 200 mg/kg) read?
A: 4.86 ± 1.22 mg/mL

Q: What about the “Urinary Protein, 6th day of administration” value ([1]; 200 mg/kg) of the same compound?
A: 5.18 ± 1.15 mg/mL

Q: And the “Urinary Protein, 7th day of administration” value ([1]; 200 mg/kg)?
A: 5.38 ± 0.92 mg/mL

Q: What about the “effect on renal function (creatinine and urea nitrogen), conclusion in words” value [1, 3] of the same compound?
A: had a tendency to improve the renal function

Q: What about the BUN ([1]; 200 mg/kg) of the same compound?
A: 126.4 mg/dL

Q: And the CREA ([1]; 200 mg/kg)?
A: 268.7 ± 56.2 µmol/L

Q: What about the TP ([1]; 200 mg/kg) of the same compound?
A: 53.2 ± 4.3 g/L

Q: What about the “Urinary Protein” value ([2]; 400 mg/kg) of the same compound?
A: 1.55 mg/mL

Q: And the “effect on renal function, conclusion in words” value [2, 3]?
A: no significant difference compared with the model group

Q: And the BUN ([2]; 400 mg/kg)?
A: 55.86 mg/dL

Q: And the CREA ([2]; 400 mg/kg)?
A: 38.11 ± 9.56 µmol/L

Q: And the TP ([2]; 400 mg/kg)?
A: 46.12 ± 2.27 g/L

Q: For `C[C@@H]1C[C@H]2[C@@H]3CCC4=CC(=O)C=C[C@]4(C)[C@@]3(F)[C@@H](O)C[C@]2(C)[C@@]1(O)C(=O)CO` [Dexamethasone, reference compound], which “Urinary Protein, 5th day of administration” value ([1]; 0.3 mg/kg) is on record?
A: 5.15 ± 0.89 mg/mL

Q: What about the “Urinary Protein, 6th day of administration” value ([1]; 0.3 mg/kg) of the same compound?
A: 5.52 ± 1.36 mg/mL

Q: What about the “Urinary Protein, 7th day of administration” value ([1]; 0.3 mg/kg) of the same compound?
A: 5.63 ± 0.58 mg/mL

Q: What about the BUN ([1]; 0.3 mg/kg) of the same compound?
A: 79.3 ± 33.6 mg/dL

Q: What about the CREA ([1]; 0.3 mg/kg) of the same compound?
A: 83.2 ± 31.9 µmol/L

Q: What about the TP ([1]; 0.3 mg/kg) of the same compound?
A: 65.7 ± 5.8 g/L

Q: What about the “Urinary Protein” value ([2]; 0.6 mg/kg) of the same compound?
A: 1.00 mg/mL

Q: And the BUN ([2]; 0.6 mg/kg)?
A: 42.97 mg/dL

Q: What about the CREA ([2]; 0.6 mg/kg) of the same compound?
A: 30.10 µmol/L

Q: What about the TP ([2]; 0.6 mg/kg) of the same compound?
A: 52.90 g/L
